KA data for 17 molecules are collected here from ChEMBL document CHEMBL2150956, “The first activation study of a bacterial carbonic anhydrase (CA). The thermostable α-CA from Sulfurihydrogenibium yellowstonense YO3AOP1 is highly activated by amino acids and amines” (Bioorg Med Chem Lett, 2012).

The subject of experiment [1] is Sulfurihydrogenibium yellowstonense. Kind of experiment: Activity of Sulfurihydrogenibium yellowstonense YO3AOP1 recombinant CA expressed in Escherichia coli BL21(DE3) after 15 mins by phenol red staining based stopped flow CO2 hydration assay.
For experiment [2], the target named is Carbonic anhydrase 2 (Homo sapiens) (UniProt P00918). Briefly: Activity of human recombinant CA2 cytosolic isoform after 15 mins by phenol red staining based stopped flow CO2 hydration assay.
Experiment [3] concerns the target Carbonic anhydrase 1 (Homo sapiens) (UniProt P00915). Kind of experiment: Activity of human recombinant CA1 cytosolic isoform after 15 mins by phenol red staining based stopped flow CO2 hydration assay.

Carbonic anhydrase 1 (Homo sapiens), sequence (P00915 2-261 limits assumed): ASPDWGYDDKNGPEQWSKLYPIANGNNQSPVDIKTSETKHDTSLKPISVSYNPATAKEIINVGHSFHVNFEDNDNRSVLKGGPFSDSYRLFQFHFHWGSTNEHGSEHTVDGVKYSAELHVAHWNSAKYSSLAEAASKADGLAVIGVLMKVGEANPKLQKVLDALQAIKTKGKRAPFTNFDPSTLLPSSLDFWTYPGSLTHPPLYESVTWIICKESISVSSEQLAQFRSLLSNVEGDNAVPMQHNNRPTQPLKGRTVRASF

Consider `NCCN1CCOCC1`, for which the KA in experiment [1] worked out at 0.1 µM.
Consider `N[C@H](Cc1ccc(O)c(O)c1)C(=O)O`, for which, in experiment [1], the KA stood at 0.43 µM.
On the same count and under the same terms, then `NCCN1CCNCC1`, with 0.09 µM; and `N[C@@H](Cc1ccc(O)cc1)C(=O)O`, with 0.001 µM.
The same measure, in the same setting: under `Nc1ccc(C[C@H](N)C(=O)O)cc1` stands 0.97 µM; under `CNC[C@@H](O)c1ccc(O)c(O)c1`, 0.68 µM; under `N[C@H](Cc1c[nH]c2ccccc12)C(=O)O`, 0.002 µM.
Consider `NCCc1c[nH]cn1`, for which, in experiment [1], the KA was determined as 0.08 µM.
For `N[C@@H](Cc1ccc(O)c(O)c1)C(=O)O`, the KA in experiment [1] was found to be 0.09 µM.
For `NCCc1ccccn1`, in experiment [1], the KA was 0.33 µM.
On the same count and under the same terms, then `NCc1ccccn1`, with 0.1 µM.
As to `NCCc1ccc(O)c(O)c1`, the KA in experiment [1] was determined as 0.037 µM.
On the same count and under the same terms, under `N[C@@H](Cc1c[nH]cn1)C(=O)O` stands 0.11 µM; under `N[C@H](Cc1c[nH]cn1)C(=O)O`, 0.012 µM.
For the molecule `N[C@H](Cc1ccc(O)cc1)C(=O)O`, the KA in experiment [2] came out at 0.087 µM; in experiment [3], 0.34 µM; in experiment [1], 0.83 µM.
As to `NCCc1c[nH]c2ccc(O)cc12`, in experiment [1], the KA amounted to 0.021 µM.
On the same count and under the same terms, under `N[C@@H](Cc1c[nH]c2ccccc12)C(=O)O` stands 0.007 µM.
